# Source: patent US11787796B2, “Plasma Kallikrein inhibitors and uses thereof” (Takeda Pharmaceutical Company Limited, priority 2019, dated 2023)
# pEC50: −log10 of the molar value.
# Molecular target: human activated kallikrein enzyme (Homo sapiens (Human), UniProt P03952)
# Test: Plasma kallikrein inhibition assay with fluorogenic peptide substrate, 500 pM activated kallikrein format
# Assay type: biochemical
# Conditions: 500 pM activated kallikrein; 300 uM Pro-Phe-Arg-7-amido-4-methylcoumarin substrate; 30 min preincubation, 10 min reaction at RT; read-out: Primary Dose Response Assay: Average EC50
# Method: Example compounds were evaluated for inhibition of the human activated kallikrein enzyme in two formats of an assay employing a fluorogenic peptide substrate. In one assay format, the concentrations of reagents were as follows: 20 mM Tris pH 7.5, 1 mM EDTA, 150 mM sodium chloride, 0.1% PEG-400, 0.1% Triton X-100, […], 300 uM Pro-Phe-Arg-7-amido-4-methylcoumarin substrate. Prior to reaction initiation with substrate, enzyme and inhibitors were preincubated for 30 min at RT. After initiation with substrate, reactions were incubated for 10 min at RT and fluorescence emission at 460 nm from 380 nm excitation measured with a microplate reader. In another assay format, the concentrations of reagents were as follows: 20 mM Tris pH 7.5, 1 mM EDTA, 150 mM sodium chloride, 0.1% PEG-400, 0.1% Triton X-100, 5 pM activated kallikrein enzyme, 300 uM Pro-Phe-Arg-7-amido-4-methylcoumarin substrate. Prior to reaction initiation with substrate, enzyme and inhibitors were preincubated for 30 min at RT. After initiation with substrate, reactions were incubated for 18 h at RT and fluorescence emission at 460 nm from 380 nm excitation measured with a microplate reader.
# Table II provides the results of the assay in the format with 500 pM activated kallikrein assay.
# Table III provides comparative plasma kallikrein inhibition potency in the assay format with 500 pM activated kallikrein assay (described in detail in the preceding example).
# Sequence of human activated kallikrein enzyme (P03952 391-638): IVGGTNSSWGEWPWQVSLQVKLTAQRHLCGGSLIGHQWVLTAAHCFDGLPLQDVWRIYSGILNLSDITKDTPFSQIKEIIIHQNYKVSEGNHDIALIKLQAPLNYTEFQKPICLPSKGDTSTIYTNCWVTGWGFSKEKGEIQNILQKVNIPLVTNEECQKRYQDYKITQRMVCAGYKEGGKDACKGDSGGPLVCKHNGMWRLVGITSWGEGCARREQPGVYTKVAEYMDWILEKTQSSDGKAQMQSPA
# Sequence of human activated kallikrein enzyme (P03952 20-390 partner): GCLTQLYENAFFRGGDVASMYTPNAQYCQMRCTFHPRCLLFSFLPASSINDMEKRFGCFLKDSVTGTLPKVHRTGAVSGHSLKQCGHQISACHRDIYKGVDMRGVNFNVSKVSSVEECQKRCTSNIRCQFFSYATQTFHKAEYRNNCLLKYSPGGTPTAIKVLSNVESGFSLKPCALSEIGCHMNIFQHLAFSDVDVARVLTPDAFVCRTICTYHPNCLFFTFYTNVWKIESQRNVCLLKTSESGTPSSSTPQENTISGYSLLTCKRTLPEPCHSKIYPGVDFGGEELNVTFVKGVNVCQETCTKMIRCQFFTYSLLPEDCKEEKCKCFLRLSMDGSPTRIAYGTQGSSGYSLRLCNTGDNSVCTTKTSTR
row,Structure (SMILES),pEC50
1,"O=C(NCc1cn(Cc2cn3cc(C4CC4)ccc3n2)nn1)c1ncc2c(F)c(Cl)ccn12 [Example I-56, 7-chloro-N-((1-((6-cyclopropylimidazo[1,2-a]pyridin-2-yl)methyl)-1H-1,2,3-triazol-4-yl)methyl)-8-fluoroimidazo[1,5-a]pyridine-3-carboxamide]",< 5.15
2,"COc1ccc(S(=O)(=O)N(C)C)c(CNC(=O)c2cn(Cc3cn4cc(C5CC5)ccc4n3)nn2)c1F [Example I-57, 1-((6-cyclopropylimidazo[1,2-a]pyridin-2-yl)methyl)-N-(6-(N,N-dimethylsulfamoyl)-2-fluoro-3-methoxybenzyl)-1H-1,2,3-triazole-4-carboxamide]",8.00 to 9.00
3,"COc1ccc([S+](C)[O-])c(CNC(=O)c2cn(Cc3cn4cc(C5CC5)ccc4n3)nn2)c1F (centres unmarked) [Example I-58, 1-((6-cyclopropylimidazo[1,2-a]pyridin-2-yl)methyl)-N-(2-fluoro-3-methoxy-6-(methylsulfinyl)benzyl)-1H-1,2,3-triazole-4-carboxamide]",5.15 to 5.70
4,"COc1ccc(-n2cnnn2)c(CNC(=O)c2cncn2Cc2cn3cc(C4CC4)ccc3n2)c1F [Example I-59, 1-((6-cyclopropylimidazo[1,2-a]pyridin-2-yl)methyl)-N-(2-fluoro-3-methoxy-6-(1H-tetrazol-1-yl)benzyl)-1H-imidazole-5-carboxamide]",< 5.15
5,"O=C(NCc1ccccc1)c1cn(Cc2cn3cc(C4CC4)ccc3n2)nn1 [Example I-60, N-benzyl-1-((6-cyclopropylimidazo[1,2-a]pyridin-2-yl)methyl)-1H-1,2,3-triazole-4-carboxamide]",< 5.15
6,"COc1ccc(-n2cncn2)c(CNC(=O)c2cn(Cc3cn4cc(C5CC5)ccc4n3)nn2)c1F [Example I-61, 1-((6-cyclopropylimidazo[1,2-a]pyridin-2-yl)methyl)-N-(2-fluoro-3-methoxy-6-(1H-1,2,4-triazol-1-yl)benzyl)-1H-1,2,3-triazole-4-carboxamide]",≥ 9.00
7,"COc1ccc(-n2ccc(C(F)(F)F)n2)c(CNC(=O)c2cn(Cc3cn4cc(C5CC5)ccc4n3)nn2)c1F [Example I-62, 1-((6-cyclopropylimidazo[1,2-a]pyridin-2-yl)methyl)-N-(2-fluoro-3-methoxy-6-(3-(trifluoromethyl)-1H-pyrazol-1-yl)benzyl)-1H-1,2,3-triazole-4-carboxamide]",8.00 to 9.00
8,"COc1ccc(-c2cc3ccccn3n2)c(CNC(=O)c2cn(Cc3cn4cc(C5CC5)ccc4n3)nn2)c1F [Example I-63, 1-((6-cyclopropylimidazo[1,2-a]pyridin-2-yl)methyl)-N-(2-fluoro-3-methoxy-6-(pyrazolo[1,5-a]pyridin-2-yl)benzyl)-1H-1,2,3-triazole-4-carboxamide]",5.70 to 7.00
9,"COc1ccc(F)c(CNC(=O)c2cn(Cc3cn4cc(C5CC5)ccc4n3)nn2)c1F [Example I-64, 1-((6-cyclopropylimidazo[1,2-a]pyridin-2-yl)methyl)-N-(2,6-difluoro-3-methoxybenzyl)-1H-1,2,3-triazole-4-carboxamide]",7.00 to 8.00
10,"O=C(NCc1ccc2[nH]cc(Cl)c2c1)c1cn(Cc2cn3cc(C4CC4)ccc3n2)nn1 [Example I-65, N-((3-chloro-1H-indol-5-yl)methyl)-1-((6-cyclopropylimidazo[1,2-a]pyridin-2-yl)methyl)-1H-1,2,3-triazole-4-carboxamide]",7.00 to 8.00
11,"COc1ccc(-n2cnnn2)c(CN(C)C(=O)c2cn(Cc3cn4cc(C5CC5)ccc4n3)nn2)c1F [Example I-66, 1-((6-cyclopropylimidazo[1,2-a]pyridin-2-yl)methyl)-N-(2-fluoro-3-methoxy-6-(1H-tetrazol-1-yl)benzyl)-N-methyl-1H-1,2,3-triazole-4-carboxamide]",5.70 to 7.00
12,"COc1ccc(-c2cn[nH]c2)c(CNC(=O)c2cn(Cc3cn4cc(C5CC5)ccc4n3)nn2)c1F [Example I-67, 1-((6-cyclopropylimidazo[1,2-a]pyridin-2-yl)methyl)-N-(2-fluoro-3-methoxy-6-(1H-pyrazol-4-yl)benzyl)-1H-1,2,3-triazole-4-carboxamide]",8.00 to 9.00
13,"COc1ccc(-n2cnnn2)c(CNC(=O)c2cn(Cc3cn4cc(C5CC5)cc(CC5COC5)c4n3)nn2)c1F [Example I-68, 1-((6-cyclopropyl-8-(oxetan-3-ylmethyl)imidazo[1,2-a]pyridin-2-yl)methyl)-N-(2-fluoro-3-methoxy-6-(1H-tetrazol-1-yl)benzyl)-1H-1,2,3-triazole-4-carboxamide]",≥ 9.00
14,"COc1ccc(-n2cnnn2)c(CNC(=O)c2nnn(Cc3cn4cc(C5CC5)cc(F)c4n3)n2)c1F [Example I-69, 2-((6-cyclopropyl-8-fluoroimidazo[1,2-a]pyridin-2-yl)methyl)-N-(2-fluoro-3-methoxy-6-(1H-tetrazol-1-yl)benzyl)-2H-tetrazole-5-carboxamide]",≥ 9.00
15,"COc1ccc(-c2cn3ccccc3n2)c(CNC(=O)c2cn(Cc3cn4cc(C5CC5)ccc4n3)nn2)c1F [Example I-70, 1-((6-cyclopropylimidazo[1,2-a]pyridin-2-yl)methyl)-N-(2-fluoro-6-(imidazo[1,2-a]pyridin-2-yl)-3-methoxybenzyl)-1H-1,2,3-triazole-4-carboxamide]",7.00 to 8.00
16,"COc1ccc(-n2cnnn2)c(CNC(=O)c2cn(Cc3cn4cc(C5CC5)cc(-n5cnnc5)c4n3)nn2)c1F [Example I-71, 1-((6-cyclopropyl-8-(4H-1,2,4-triazol-4-yl)imidazo[1,2-a]pyridin-2-yl)methyl)-N-(2-fluoro-3-methoxy-6-(1H-tetrazol-1-yl)benzyl)-1H-1,2,3-triazole-4-carboxamide]",≥ 9.00
17,"COc1ncc(C#N)c(CNC(=O)c2cn(Cc3cn4cc(C5CC5)ccc4n3)nn2)c1F [Example I-72, N-((5-cyano-3-fluoro-2-methoxypyridin-4-yl)methyl)-1-((6-cyclopropylimidazo[1,2-a]pyridin-2-yl)methyl)-1H-1,2,3-triazole-4-carboxamide]",5.70 to 7.00
18,"COc1ccc(-n2cc(C)c(C)n2)c(CNC(=O)c2cn(Cc3cn4cc(C5CC5)ccc4n3)nn2)c1F [Example I-73, 1-((6-cyclopropylimidazo[1,2-a]pyridin-2-yl)methyl)-N-(6-(3,4-dimethyl-1H-pyrazol-1-yl)-2-fluoro-3-methoxybenzyl)-1H-1,2,3-triazole-4-carboxamide]",7.00 to 8.00
19,"COc1ccc(-c2cnc(C(=O)O)nc2)c(CNC(=O)c2cn(Cc3cn4cc(C5CC5)ccc4n3)nn2)c1F [Example I-74, 5-(2-((1-((6-cyclopropylimidazo[1,2-a]pyridin-2-yl)methyl)-1H-1,2,3-triazole-4-carboxamido)methyl)-3-fluoro-4-methoxyphenyl)pyrimidine-2-carboxylic Acid]",8.00 to 9.00
20,"COC(=O)c1ncc(-c2ccc(OC)c(F)c2CNC(=O)c2cn(Cc3cn4cc(C5CC5)ccc4n3)nn2)cn1 [Example I-75, Methyl 5-(2-((1-((6-cyclopropylimidazo[1,2-a]pyridin-2-yl)methyl)-1H-1,2,3-triazole-4-carboxamido)methyl)-3-fluoro-4-methoxyphenyl)pyrimidine-2-carboxylate]",8.00 to 9.00
21,"COc1ccc(-n2ccnn2)c(CNC(=O)c2cn(Cc3cn4cc(C5CC5)ccc4n3)nn2)c1F [Example I-76, 1-((6-cyclopropylimidazo[1,2-a]pyridin-2-yl)methyl)-N-(2-fluoro-3-methoxy-6-(1H-1,2,3-triazol-1-yl)benzyl)-1H-1,2,3-triazole-4-carboxamide]",≥ 9.00
22,"O=C(NCc1cc2ccc(Cl)cc2s1)c1cn(Cc2cn3cc(C4CC4)ccc3n2)nn1 [Example I-77, N-((6-chlorobenzo[b]thiophen-2-yl)methyl)-1-((6-cyclopropylimidazo[1,2-a]pyridin-2-yl)methyl)-1H-1,2,3-triazole-4-carboxamide]",< 5.15
23,"O=C(NCc1c(-n2cnnn2)ccc(C2CC2)c1F)c1cn(Cc2cn3cc(C4CC4)ccc3n2)nn1 [Example I-78, N-(3-cyclopropyl-2-fluoro-6-(1H-tetrazol-1-yl)benzyl)-1-((6-cyclopropylimidazo[1,2-a]pyridin-2-yl)methyl)-1H-1,2,3-triazole-4-carboxamide]",7.00 to 8.00
24,"O=C(NCc1c(C(F)F)ccc(Cl)c1F)c1cn(Cc2cn3cc(C4CC4)ccc3n2)nn1 [Example I-79, N-(3-chloro-6-(difluoromethyl)-2-fluorobenzyl)-1-((6-cyclopropylimidazo[1,2-a]pyridin-2-yl)methyl)-1H-1,2,3-triazole-4-carboxamide]",7.00 to 8.00
25,"Cc1c(Cl)ccc(-n2cnnn2)c1CNC(=O)c1cn(Cc2cn3cc(C4CC4)ccc3n2)nn1 [Example I-80, N-(3-chloro-2-methyl-6-(1H-tetrazol-1-yl)benzyl)-1-((6-cyclopropylimidazo[1,2-a]pyridin-2-yl)methyl)-1H-1,2,3-triazole-4-carboxamide]",5.70 to 7.00
26,"COc1ccc(-n2cnnn2)c(CNC(=O)c2cn(Cc3cn4cc(C5CC5)cc(CC(C)(C)C(=O)O)c4n3)nn2)c1F [Example I-81, 3-(6-cyclopropyl-2-((4-((2-fluoro-3-methoxy-6-(1H-tetrazol-1-yl)benzyl)carbamoyl)-1H-1,2,3-triazol-1-yl)methyl)imidazo[1,2-a]pyridin-8-yl)-2,2-dimethylpropanoic acid]",≥ 9.00
